Test results as given in ChEMBL document CHEMBL1126411, “Synthesis and HIV activity of phosphonate isosteres of D4T monophosphate” (Bioorg Med Chem Lett, 1992).

These compounds were tested on MT4 (assay: Concentration required for the inhibition of HIV replication by 50% in MT-4 cells). Conditions: Homo sapiens.
Assay type: functional, cell-based

SMILES | IC50
Cc1cn([C@H]2C=C[C@@H](CO)O2)c(=O)[nH]c1=O [STAVUDINE] | 1.2 µM
Cc1cn([C@H]2C=C[C@@H](OCP(=O)(O)O)C2)c(=O)[nH]c1=O | > 1000 µM
Cc1cn([C@H]2C=C[C@@H](OCP(=O)(O)O)O2)c(=O)[nH]c1=O | 1.3 µM
Cc1cn([C@H]2C=C[C@@H](CCP(=O)(O)O)O2)c(=O)[nH]c1=O | > 1000 µM
